Data reported in ChEMBL document CHEMBL2203090, “Synthesis and Evaluation of 5-Fluoro-2-aryloxazolo[5,4-b]pyridines as β-Amyloid PET Ligands and Identification of MK-3328” (ACS Med Chem Lett, 2011).
Calls of active or inactive are those of the source. No cut-off for these calls is given here.

Experiments:
[1] = biological target: T1, Amyloid-beta precursor protein (Homo sapiens, UniProt P05067); assay: […] amyloid beta plaque in cortex homogenate isolated from Alzheimer disease patient after 90 mins by scintillation counting; format: tissue-based; conditions: for Bmax: tested as the 3H-labelled form
T1 sequence (P05067 whole entry): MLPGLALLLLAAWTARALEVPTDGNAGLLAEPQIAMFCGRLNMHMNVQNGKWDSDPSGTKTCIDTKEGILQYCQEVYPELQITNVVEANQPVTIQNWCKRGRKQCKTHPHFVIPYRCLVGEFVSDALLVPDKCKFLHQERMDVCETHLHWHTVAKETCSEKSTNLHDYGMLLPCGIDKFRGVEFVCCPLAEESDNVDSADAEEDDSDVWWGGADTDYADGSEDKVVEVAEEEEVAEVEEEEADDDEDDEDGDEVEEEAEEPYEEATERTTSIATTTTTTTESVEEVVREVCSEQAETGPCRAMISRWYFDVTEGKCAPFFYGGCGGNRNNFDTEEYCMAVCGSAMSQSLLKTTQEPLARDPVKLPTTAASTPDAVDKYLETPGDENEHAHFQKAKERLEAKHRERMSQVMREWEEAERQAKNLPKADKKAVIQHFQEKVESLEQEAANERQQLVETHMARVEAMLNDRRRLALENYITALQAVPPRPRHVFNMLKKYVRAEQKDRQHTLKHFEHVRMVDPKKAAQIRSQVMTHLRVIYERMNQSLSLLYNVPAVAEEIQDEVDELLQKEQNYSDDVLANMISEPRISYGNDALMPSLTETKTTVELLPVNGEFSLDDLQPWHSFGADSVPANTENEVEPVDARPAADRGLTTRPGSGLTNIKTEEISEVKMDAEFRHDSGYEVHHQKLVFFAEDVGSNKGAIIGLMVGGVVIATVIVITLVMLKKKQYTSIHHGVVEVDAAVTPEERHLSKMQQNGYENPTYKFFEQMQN

P-gp = assay: Activity at human P-gp expressed in LLC-PK1 cells assessed as efflux ratio of apparent permeability; format: ADME, cell-based
[2] = biological target: T1, Amyloid-beta precursor protein; assay: Binding affinity to human amyloid beta plaque
P-gp (Homo sapiens) = assay: Activity at human P-gp expressed in pig LLC-PK1 cells assessed as passive apparent permeability
[3] = biological target: T1, Amyloid-beta precursor protein; assay: Binding affinity to amyloid beta plaque in cortex homogenate isolated from Alzheimer disease patient at 5 nM after 90 mins by autoradiography; format: tissue-based; conditions: tested as the 3H-labelled form
[4] = biological target: T1, Amyloid-beta precursor protein; assay: […] amyloid beta plaque in cortex homogenate isolated from Alzheimer disease patient at 6.4 nM after 90 mins by scintillation counting in presence of 5-Fluoro-2-(1-methyl-1H-indol-5-yl)-oxazolo[5,4-b]pyridine; format: tissue-based; conditions: tested as the 3H-labelled form
[5] = biological target: T1, Amyloid-beta precursor protein; assay: Ratio of Bmax to Kd for amyloid beta plaque in cortex homogenate isolated from Alzheimer disease patient; format: tissue-based; conditions: tested as the 3H-labelled form
Brain = assay: Drug uptake in rhesus monkey brain white matter up to 90 mins; format: ADME, tissue-based, Macaca mulatta; conditions: in vivo, 1.5 h
[6] = Drug uptake in rhesus monkey cerebellum after 90 mins; format: ADME, tissue-based, Macaca mulatta; conditions: in vivo, 1.5 h
[7] = Drug uptake in rhesus monkey cortex after 90 mins; format: ADME, tissue-based, Macaca mulatta; conditions: in vivo, 1.5 h
[8] = Drug uptake in rhesus monkey cerebellum up to 90 mins; format: ADME, tissue-based, Macaca mulatta; conditions: in vivo, 1.5 h
[9] = Drug uptake in rhesus monkey cortex up to 90 mins; format: ADME, tissue-based, Macaca mulatta; conditions: in vivo, 1.5 h
[10] = biological target: T1, Amyloid-beta precursor protein; assay: […] amyloid beta plaque in cortex homogenate isolated from Alzheimer disease patient at 9.6 nM after 90 mins by scintillation counting in presence of 5-Fluoro-2-(1-methyl-1H-pyrrolo[2,3-b]pyridin-5-yl)-oxazolo[5,4-b]pyridine; format: tissue-based; conditions: tested as the 3H-labelled form
[11] = biological target: T1, Amyloid-beta precursor protein; assay: […] amyloid beta plaque in cortex homogenate isolated from Alzheimer disease patient at 4.2 nM after 90 mins by scintillation counting in presence of [4-(5-Fluoro-oxazolo[5,4-b]pyridin-2-yl)-phenyl]-dimethyl-amine; format: tissue-based; conditions: tested as the 3H-labelled form

[3H]C([3H])([3H])n1ccc2cc(-c3nc4ccc(F)nc4o3)ccc21
Kd [1]: 6.4 nM

Cn1cnc2cc(-c3nc4ccc(F)nc4o3)ccc21
efflux ratio (P-gp): < 3
IC50 [2]: > 1000 nM
Papp (P-gp (Homo sapiens)): > 20 ×10⁻⁶ cm/s

CN1CCc2cc(-c3nc4ccc(F)nc4o3)cnc21
efflux ratio (P-gp): < 3
IC50 [2]: 47 nM
Papp (P-gp (Homo sapiens)): > 20 ×10⁻⁶ cm/s

Cn1ccc2cc(-c3nc4ccc(F)nc4o3)ccc21
efflux ratio (P-gp): < 3
Activity [3]: inactive
Activity [4]: 50%
Ratio [5]: 232
Bmax [1]: 1450 nM
IC50 [2]: 8 nM
Papp (P-gp (Homo sapiens)): > 20 ×10⁻⁶ cm/s

Fc1ccc2nc(-c3ccc4[nH]ccc4c3)oc2n1
efflux ratio (P-gp): < 3
IC50 [2]: 13.8 nM
Papp (P-gp (Homo sapiens)): > 20 ×10⁻⁶ cm/s

Cn1ncc2cc(-c3nc4ccc(F)nc4o3)ccc21
efflux ratio (P-gp): < 3
IC50 [2]: 48.7 nM
Papp (P-gp (Homo sapiens)): > 20 ×10⁻⁶ cm/s

Cn1ccc2cc(-c3nc4ccc(F)nc4o3)ncc21
efflux ratio (P-gp): < 3
IC50 [2]: > 1000 nM
Papp (P-gp (Homo sapiens)): > 20 ×10⁻⁶ cm/s

Cn1ccc2cc(-c3nc4ccc([18F])nc4o3)cnc21
Drug uptake (Brain): Not Active
Drug uptake [6]: Not Active
Drug uptake [7]: Not Active
SUV [8]: 3
SUV [9]: 2.7

CN(C)c1ccc(-c2nc3ccc(F)nc3o2)cn1
efflux ratio (P-gp): < 3
IC50 [2]: 41.8 nM
Papp (P-gp (Homo sapiens)): > 20 ×10⁻⁶ cm/s

Fc1ccc2nc(-c3ccc4cc[nH]c4c3)oc2n1
efflux ratio (P-gp): < 3
IC50 [2]: 45.3 nM
Papp (P-gp (Homo sapiens)): > 20 ×10⁻⁶ cm/s

CNc1ccc(-c2nc3ccc(F)nc3o2)cn1
efflux ratio (P-gp): < 3
IC50 [2]: 102 nM
Papp (P-gp (Homo sapiens)): > 20 ×10⁻⁶ cm/s

Cn1ccc2cc(-c3nc4ccc(F)nc4o3)cnc21
efflux ratio (P-gp): < 3
Activity [3]: Active
Activity [10]: 35%
Ratio [5]: 117
Bmax [1]: 1100 nM
IC50 [2]: 10.5 nM
Papp (P-gp (Homo sapiens)): > 20 ×10⁻⁶ cm/s

CN(C)c1ccc(-c2nc3ccc(F)nc3o2)cc1
efflux ratio (P-gp): < 3
Activity [3]: Active
Ratio [5]: 464
Activity [11]: 50%
Bmax [1]: 2090 nM
IC50 [2]: 4 nM
Papp (P-gp (Homo sapiens)): > 20 ×10⁻⁶ cm/s

[3H]C([3H])([3H])n1ccc2cc(-c3nc4ccc(F)nc4o3)cnc21
Kd [1]: 9.6 nM

Fc1ccc2nc(-c3ccc4ncsc4c3)oc2n1
efflux ratio (P-gp): < 3
IC50 [2]: 35.8 nM
Papp (P-gp (Homo sapiens)): > 20 ×10⁻⁶ cm/s

[3H]C([3H])([3H])N(C)c1ccc(-c2nc3ccc(F)nc3o2)cc1
Kd [1]: 4.5 nM

COc1ccc(-c2nc3ccc(F)nc3o2)cc1
efflux ratio (P-gp): < 3
IC50 [2]: 32.5 nM
Papp (P-gp (Homo sapiens)): > 20 ×10⁻⁶ cm/s

Cn1ncc2cc(-c3nc4ccc(F)nc4o3)cnc21
efflux ratio (P-gp): < 3
IC50 [2]: 30.2 nM
Papp (P-gp (Homo sapiens)): > 20 ×10⁻⁶ cm/s

Fc1ccc2nc(-c3cnc4[nH]ccc4c3)oc2n1
efflux ratio (P-gp): < 3
IC50 [2]: 25.7 nM
Papp (P-gp (Homo sapiens)): > 20 ×10⁻⁶ cm/s

CNc1ccc(-c2nc3ccc(F)nc3o2)cc1
efflux ratio (P-gp): < 3
IC50 [2]: 23.1 nM
Papp (P-gp (Homo sapiens)): > 20 ×10⁻⁶ cm/s
